≈ marks a conversion by molar mass, not a printed value. Like-named read-outs stand apart in the source and are kept apart here. A value given as a limit tells only on which side of the number the result lay.

One data set in a line: in vivo. Conditions: female, ICR, mouse. On the procedure:
Test compounds were administered to female ICR mice weighing 20 to 25g and on day 14, LD₅₀ was calculated from the number of survived mice by the probit analysis.

The test system of a further data set is Salmonella typhimurium. Description: In vitro anti-bacterial activity test (MIC, two-fold agar dilution). Conditions: Salmonella enterica, Mueller-Hinton agar, 10⁷ CFU/mℓ, 37°C, 18 hours, read-out: MIC. Type of data set: cell-based. Background: Agar dilution tests growth on a series of plates holding different concentrations.
The test system of another data set is Escherichia coli 1507E. The description is as above. Type of data set: cell-based. Conditions: Mueller-Hinton agar, 10⁷ CFU/mℓ, 37°C, 18 hours, read-out: MIC.
A further data set relates to Escherichia coli DC 2. Described as above. The settings on record: DC2, Mueller-Hinton agar, 10⁷ CFU/mℓ, 37°C, 18 hours, read-out: MIC. Format: cell-based.
The next data set has as its system P. mirabilis. Description: Preventive effect on the systemic infection. The settings on record: Proteus mirabilis, in Mus musculus, P. mirabilis intraperitoneal infection, NMRI mice, survival on day 7, probit analysis, read-out: ED₅₀. Type of data set: in vivo. On the procedure: (§1) 10 fold of the pathogen which leads to 100% lethality were injected intraperitoneally to male and female NMRI mice weighing 18 to 20g. Immediately and after 4 hours, the dose of test compounds which was determined by two-fold serial dilution method was administered orally or subcutaneously; and on day 7, the effectiveness was evaluated in terms of ED₅₀ calculated from the number of survived mice by the probit analysis.

Data set [1] concerns Klebsiella aerogenes 1082E. Description: In vitro anti-bacterial activity test (MIC, two-fold agar dilution). Type of data set: cell-based. Conditions: Mueller-Hinton agar, 10⁷ CFU/mℓ, 37°C, 18 hours, read-out: MIC.
A further data set has as its system Enterobacter cloacae P99. The description is as above. Type of data set: cell-based. Conditions: Mueller-Hinton agar, 10⁷ CFU/mℓ, 37°C, 18 hours, read-out: MIC.
Data set [2] relates to Pseudomonas aeruginosa 9027. The description is as above. Format: cell-based.
The subject of data set [3] is Pseudomonas aeruginosa 1771. The data set is described as above. Format: cell-based.
Data set [4] relates to Staphylococcus aureus SG 511. The description is as above. Format: cell-based.
The subject of a further data set is Escherichia coli DC 0. Described as above. Format: cell-based. The settings on record: DC0, Mueller-Hinton agar, 10⁷ CFU/mℓ, 37°C, 18 hours, read-out: MIC.
For data set [5], the system named is Streptococcus pyogenes 308A. The data set is described as above. Type of data set: cell-based. Conditions: Mueller-Hinton agar, 10⁷ CFU/mℓ, 37°C, 18 hours, read-out: MIC.
The test system of the next data set is Escherichia coli O 55. The data set is described as above. Format: cell-based. The settings on record: O55, Mueller-Hinton agar, 10⁷ CFU/mℓ, 37°C, 18 hours, read-out: MIC.
Data set [6] has as its system Pseudomonas aeruginosa 1592E. The description is as above. Format: cell-based. Conditions: Mueller-Hinton agar, 10⁷ CFU/mℓ, 37°C, 18 hours, read-out: MIC.
The subject of a further data set is Escherichia coli OTEM. The description is as above. Type of data set: cell-based. The settings on record: Mueller-Hinton agar, 10⁷ CFU/mℓ, 37°C, 18 hours, read-out: MIC.
Data set [7] has as its system Staphylococcus aureus 285. The description is as above. Format: cell-based.
The test system of data set [8] is Enterobacter cloacae 1321E. The data set is described as above. Type of data set: cell-based. The settings on record: Mueller-Hinton agar, 10⁷ CFU/mℓ, 37°C, 18 hours, read-out: MIC.
For data set [9], the system named is Pseudomonas aeruginosa 1771M. The description is as above. Conditions: 18 h. Format: cell-based.
Data set [10] relates to Klebsiella aerogenes 1522E. The description is as above. Type of data set: cell-based. Conditions: Mueller-Hinton agar, 10⁷ CFU/mℓ, 37°C, 18 hours, read-out: MIC.
Data set [11] concerns Streptococcus pyogenes 77A. Described as above. Type of data set: cell-based.
The subject of data set [12] is Streptococcus faecium MD 8b. Described as above. Type of data set: cell-based. Conditions: Enterococcus faecium, MD8B.
The test system of data set [13] is Staphylococcus aureus 503. The description is as above. Type of data set: cell-based.
A further data set relates to S. aureus 17740. In words: Preventive effect on the systemic infection. Format: in vivo. The settings on record: Staphylococcus aureus, 17740, in Mus musculus, S. aureus 17740 intraperitoneal infection, NMRI mice, survival on day 7, probit analysis, read-out: ED₅₀. Here is the method:
as §1

Setting [14] is: Oral Administration immediately and after 4 hours.
Setting [15] is: Subcutaneous Injection immediately and after 4 hours.
Setting [16] is: Pseudomonas aeruginosa 9027, Mueller-Hinton agar, 10⁷ CFU/mℓ, 37°C, 18 hours, read-out: MIC.
Setting [17] is: Pseudomonas aeruginosa 1771, Mueller-Hinton agar, 10⁷ CFU/mℓ, 37°C, 18 hours, read-out: MIC.
[18] abbreviates: SG511, Staphylococcus aureus SG 511, Mueller-Hinton agar, 10⁷ CFU/mℓ, 37°C, 18 hours, read-out: MIC.
Setting [19] is: Staphylococcus aureus 285, Mueller-Hinton agar, 10⁷ CFU/mℓ, 37°C, 18 hours, read-out: MIC.
The mark [20] stands for this setting: Streptococcus pyogenes 77A, Mueller-Hinton agar, 10⁷ CFU/mℓ, 37°C, 18 hours, read-out: MIC.
Setting [21] is: Streptococcus faecium MD 8b, Mueller-Hinton agar, 10⁷ CFU/mℓ, 37°C, 18 hours, read-out: MIC.
The mark [22] stands for this setting: Staphylococcus aureus 503, Mueller-Hinton agar, 10⁷ CFU/mℓ, 37°C, 18 hours, read-out: MIC.

The LD50 is the dose expected to kill half of the subjects tested. A high value points to a less toxic substance. Consider `COc1c(N2CC3=C(C2)C(N)CC3)c(F)cc2c(=O)c(C(=O)O)cn(C3CC3)c12` (centres unmarked) [Example 6, 7-[6-amino-3-azabicyclo[3,3,0]oct-1(5)ene-3-yl]-1-cyclopropyl-6-fluoro-8-methoxy-1,4-dihydro-4-oxoquinoline-3-carboxylic acid], for which the results for the LD50 at 14 day in “in vivo” (ip) and in “in vivo” (po) were 755 mg/kg and 4300 mg/kg, respectively.

The MIC is the smallest concentration in the dilution series that meets the test's criterion for growth inhibition. `NC1CCC2=C1CN(c1c(F)cc3c(=O)c(C(=O)O)cn(C4CC4)c3c1Cl)C2` (centres unmarked) [Example 3, 7-[6-amino-3-azabicyclo[3,3,0]oct-1(5)ene-3-yl]-1-cyclopropyl-8-chloro-6-fluoro-1,4-dihydro-4-oxoquinoline-3-carboxylic acid]: the MIC in the data set on Salmonella typhimurium is 0.049 µg/mL (≈ 0.121 µM); in the data set with Escherichia coli 1507E, 0.098 µg/mL (≈ 0.243 µM); with Escherichia coli DC 2 it was 0.049 µg/mL (≈ 0.121 µM); in [1] it was 0.013 µg/mL (≈ 0.0322 µM); with Enterobacter cloacae P99, 0.098 µg/mL (≈ 0.243 µM); in data set [2] (setting [16]), 1.56 µg/mL (≈ 3.87 µM). Further, the MIC in data set [3] (setting [17]) amounted to 1.56 µg/mL (≈ 3.87 µM); in data set [4] (setting [18]) it was 0.025 µg/mL (≈ 0.0619 µM); in the data set on Escherichia coli DC 0 it was 0.781 µg/mL (≈ 1.93 µM); in data set [5] it was 0.195 µg/mL (≈ 0.483 µM); in the data set with Escherichia coli O 55 it was 0.049 µg/mL (≈ 0.121 µM); in [6], 1.56 µg/mL (≈ 3.87 µM). For the same molecule, the MIC in the data set with Escherichia coli OTEM was found to be 0.098 µg/mL (≈ 0.243 µM); in data set [7] (setting [19]), 0.049 µg/mL (≈ 0.121 µM); in data set [8], 0.098 µg/mL (≈ 0.243 µM); in data set [9] it was 0.391 µg/mL (≈ 0.968 µM); in data set [10], 0.195 µg/mL (≈ 0.483 µM); in data set [11] (setting [20]), 0.049 µg/mL (≈ 0.121 µM). For the same molecule, the MIC turned out to be 0.098 µg/mL (≈ 0.243 µM) in data set [12] (setting [21]) and 0.049 µg/mL (≈ 0.121 µM) in [13] (setting [22]). Also, the ED50 in the data set on P. mirabilis (setting [14]) amounted to 5.9 mg/kg; in the data set with P. mirabilis (setting [15]), 1.43 mg/kg. Further, the values for the LD50 at 14 day in “in vivo” (ip) and in the data set “in vivo” (po) were 731 mg/kg and 4100 mg/kg, respectively.

Regarding `CC1COc2c(N3CCN(C)CC3)c(F)cc3c(=O)c(C(=O)O)cn1c23` (centres unmarked) [Ofloxacin, reference compound], the minimal inhibitory concentration (MIC) with Salmonella typhimurium was 0.098 µg/mL (≈ 0.271 µM); with Escherichia coli 1507E, 0.098 µg/mL (≈ 0.271 µM); in the data set on Escherichia coli DC 2, 0.391 µg/mL (≈ 1.08 µM); in data set [1], 0.025 µg/mL (≈ 0.0692 µM); with Enterobacter cloacae P99 it was 0.098 µg/mL (≈ 0.271 µM); in data set [2] (setting [16]), 1.56 µg/mL (≈ 4.33 µM). Moreover, the MIC in [3] (setting [17]) amounted to 1.56 µg/mL (≈ 4.33 µM); in [4] (setting [18]), 0.391 µg/mL (≈ 1.08 µM); in the data set on Escherichia coli DC 0, 0.781 µg/mL (≈ 2.16 µM); in data set [5], 3.12 µg/mL (≈ 8.65 µM); in the data set on Escherichia coli O 55 it was 0.025 µg/mL (≈ 0.0692 µM); in data set [6] it was 1.56 µg/mL (≈ 4.33 µM). Also, the MIC in the data set with Escherichia coli OTEM is 0.049 µg/mL (≈ 0.136 µM); in data set [7] (setting [19]) it was 0.391 µg/mL (≈ 1.08 µM); in [8], 0.049 µg/mL (≈ 0.136 µM); in [9], 0.391 µg/mL (≈ 1.08 µM); in data set [10], 0.098 µg/mL (≈ 0.271 µM); in data set [11] (setting [20]) it was 1.56 µg/mL (≈ 4.33 µM). Besides, the MIC came out at 0.781 µg/mL (≈ 2.16 µM) in [12] (setting [21]) and 0.391 µg/mL (≈ 1.08 µM) in data set [13] (setting [22]). In addition, the ED50 was more than 200 mg/kg with S. aureus 17740 (setting [14]), 200 mg/kg in the data set with S. aureus 17740 (setting [15]), 2.27 mg/kg in the data set on P. mirabilis (setting [14]) and 0.53 mg/kg with P. mirabilis (setting [15]).

`O=C(O)c1cn(C2CC2)c2cc(N3CCNCC3)c(F)cc2c1=O` [Ciprofloxacin, reference compound]: the MIC is 0.049 µg/mL (≈ 0.148 µM) in the data set with Salmonella typhimurium; 0.195 µg/mL (≈ 0.589 µM) in the data set on Escherichia coli DC 2; 0.781 µg/mL (≈ 2.36 µM) in data set [2] (Pseudomonas aeruginosa, 9027, 18 h); 0.781 µg/mL (≈ 2.36 µM) in data set [3] (Pseudomonas aeruginosa, 1771, 18 h); 0.781 µg/mL (≈ 2.36 µM) in data set [4] (Staphylococcus aureus, SG511, 18 h); 0.391 µg/mL (≈ 1.18 µM) in the data set on Escherichia coli DC 0. Further, the MIC was 3.12 µg/mL (≈ 9.43 µM) in data set [5]; 0.007 µg/mL (≈ 0.0211 µM) in the data set on Escherichia coli O 55; 0.391 µg/mL (≈ 1.18 µM) in data set [6]; 0.781 µg/mL (≈ 2.36 µM) in [7] (Staphylococcus aureus, 285, 18 h); 0.195 µg/mL (≈ 0.589 µM) in data set [9]; 0.781 µg/mL (≈ 2.36 µM) in data set [11] (Streptococcus pyogenes, 77A, 18 h). In addition, the MIC in data set [12] (18 h) turned out to be 0.781 µg/mL (≈ 2.36 µM); in data set [13] (Staphylococcus aureus, 503, 18 h), 0.781 µg/mL (≈ 2.36 µM). Further, the ED50 was more than 200 mg/kg in the data set on S. aureus 17740 (setting [14]), 132 mg/kg in the data set with S. aureus 17740 (setting [15]), 0.92 mg/kg in the data set with P. mirabilis (setting [14]) and 0.28 mg/kg in the data set on P. mirabilis (setting [15]).

These data come from EP0549857A1, “Antibacterial quinolone carboxylic acid derivatives” (KOREA RESEARCH INSTITUTE OF CHEMICAL TECHNOLOGY, priority 1991, dated 1993).
